Values of other authors, collected in patent US7759386B2, “Pharmaceutical compositions of estrogenic agents” (Wyeth LLC, priority 2000, dated 2010).

Details: after 1 year of storage; best antioxidant system described; solid state, tablets

## C=C1CC[C@H](O)C/C1=C/C=C1\CCC[C@]2(C)[C@@H]([C@H](C)CCCC(C)C)CC[C@@H]12 [cholecalciferol]
  original content remaining: 87.6%
